Source: patent publication US20250092039A1, “GLUTARIMIDE-CONTAINING PAN-KRAS-MUTANT DEGRADER COMPOUNDS AND USES THEREOF” (Tiger Biotherapeutics Inc., priority 2022, published 2025)
pIC50: −log10 of the molar value. Where two headings read alike, the source gives them in different places.

Experiments:
[1] = target: KRAS-G12V/RAF1 (Homo sapiens (Human), UniProt P01116, G12V); experiment: KRAS/RAF1 binding inhibition assay (AlphaScreen)
Summary of the method: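 IC50 comes from variable-slope nonlinear fits of % inhibition (relative to DMSO) against inhibitor concentration. The AlphaScreen signal tracks the interaction of GppNHp-bound KRAS G12V with the RAF1 RBD after 60 min at 4° C with compound in 2% DMSO final.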

[2] = target: KRAS G12V (Homo sapiens (Human), UniProt P01116, G12V); experiment: KRAS G12V degradation in SW620 cells (Western blot, DC50); assay type: cell-based; conditions: 24 hours
Sequence of KRAS G12V (P01116-2 other isoform, or with tags, fused parts or gaps G12V): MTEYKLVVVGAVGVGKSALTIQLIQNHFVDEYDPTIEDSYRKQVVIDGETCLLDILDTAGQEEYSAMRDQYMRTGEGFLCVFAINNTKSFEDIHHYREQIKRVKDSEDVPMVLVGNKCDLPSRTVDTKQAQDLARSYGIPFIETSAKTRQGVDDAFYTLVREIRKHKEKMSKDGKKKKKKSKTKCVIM
Summary of the method: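 KRAS levels were quantified by fluorescent Western blot as percent of the DMSO control after 24 h of compound exposure at 37° C in homozygous KRAS G12V SW620 cells. A four-parameter variable-slope fit of the dose-response gave the half-maximal degradation concentration.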

[3] = test system: SW620 cells; experiment: 3D cell growth inhibition of SW620 cells carrying endogenous KRAS G12V mutation (CellTiter-Glo 3D, GI50); assay type: cell-based; conditions: Homo sapiens, SW-620, 144 h, read-out: SW620 3D cell growth GI50
Summary of the method: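 […], compound exposure lasted 6 days at 37° C, added the day after plating from DMSO stocks over a concentration range. Cells: SW620, KRAS G12V, 3D culture.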

[4] = Pharmacokinetics following single intravenous and oral gavage dosing (AUC0-24h); assay type: in vivo; conditions: mouse, plasma, male CD-1 mice
Experimental: Compounds disclosed herein were studied for animal tolerability and pharmacokinetics following single intravenous (iv) and oral gavage (po) dosing to male CD-1 mice. For each compound in each dosing route, 3 mice were used with iv dosing volume of 5 mL/kg and po dosing volume of 10 mL/kg. The compounds were formulated in 10% DMSO, 30% PEG400, 60% aqueous solution containing 20% 2-hydroxypropyl-β-cyclodextrin. Blood sampling time points for iv dosing were 0.083, 0.25, 0.5, 1, 2, 4, 8 and 24 h. The sampling time points for po dosing were 0.25, 0.5, 1, 2, 4, 6, 8 and 24 h. Mice activities were monitored and recorded immediately following the dosing. The prepared plasma samples were analyzed using LC/MS/MS on AB Sciex Triple Quad 5500+ system. The PK parameters were determined by non-compartmental analysis using WinNonlin (Version 8.0).

Sequence of KRAS-G12V/RAF1 (P01116-2 other isoform, or with tags, fused parts or gaps G12V): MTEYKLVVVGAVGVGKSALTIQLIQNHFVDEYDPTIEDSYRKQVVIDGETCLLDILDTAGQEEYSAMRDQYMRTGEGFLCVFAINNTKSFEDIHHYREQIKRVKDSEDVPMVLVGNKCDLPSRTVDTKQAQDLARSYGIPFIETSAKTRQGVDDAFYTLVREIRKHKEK

Compound | pIC50 [1] | DC50 [2] [µM] | GI50 ([3]; SW620 cells, 6 days) [µM] | AUC(0-t) ([4]; single oral dose 30 mg/Kg) [ng·h/mL] | GI50 [3] [µM] | AUC(0-t) ([4]; single oral dose 50 mg/Kg) [ng·h/mL]
CCc1c(F)ccc2cc(O)cc(-c3ncc4c(N5CCC[C@@](C)(O)C5)nc(OCC5(CN6CCC(C)(CN7CCN(C8CCN(c9ccc%10c(c9)CN(C9CCC(=O)NC9=O)C%10=O)CC8)CC7)CC6)CC5)nc4c3F)c12 (stereo partly drawn) [Compound 39, 3-(5-(4-(4-((1-((1-(((7-(8-ethyl-7-fluoro-3-hydroxynaphthalen-1-yl)-8-fluoro-4-((R)-3-hydroxy-3-methylpiperidin-1-yl)pyrido[4,3-d]pyrimidin-2-yl)oxy)methyl)cyclopropyl)methyl)-4-methylpiperidin-4-yl)methyl)piperazin-1-yl)piperidin-1-yl)-1-oxoisoindolin-2-yl)piperidine-2.6-dione] | > 7.70 | < 0.001 | < 0.01 | 399 |  | 
CCc1c(F)ccc2cc(O)cc(-c3ncc4c(N5CCC[C@@](C)(O)C5)nc(OCC5(CN6CCC(C)(CN7CC8(CCN(c9ccc%10c(c9)CN([C@H]9CCC(=O)NC9=O)C%10=O)CC8)C7)CC6)CC5)nc4c3F)c12 [Compound 40, (3S)-3-(5-(2-[(1-{[1-({[7-(8-ethyl-7-fluoro-3-hydroxynaphthalen-1-yl)-8-fluoro-4-[(3R)-3-hydroxy-3-methylpiperidin-1-yl]pyrido[4,3-d]pyrimidin-2-yl]oxy}methyl)cyclopropyl]methyl}-4-methylpiperidin-4-yl)methyl]-2,7-diazaspiro[3.5]nonan-7-yl}-1-oxo-3H-isoindol-2-yl)piperidine-2,6-dione] | > 7.70 | < 0.001 | < 0.01 | 652 |  | 
CCc1c(F)ccc2cc(O)cc(-c3ncc4c(N5CCCC6(CCO6)C5)nc(OCC5(CN6CCC(F)(CN7CCN(c8ccc9c(c8)CN([C@H]8CCC(=O)NC8=O)C9=O)CC7)CC6)CC5)nc4c3F)c12 (stereo partly drawn) [Compound 41, (3S)-3-(5-(4-((1-((1-(((7-(8-ethyl-7-fluoro-3-hydroxynaphthalen-1-yl)-8-fluoro-4-(1-oxa-6-azaspiro[3.5]nonan-6-yl)pyrido[4,3-d]pyrimidin-2-yl)oxy)methyl)cyclopropyl)methyl)-4-fluoropiperidin-4-yl)methyl)piperazin-1-yl)-1-oxoisoindolin-2-yl)piperidine-2,6-dione] | 6.70 to 7.70 | 0.001 to 0.01 | < 0.01 | 1850 |  | 
CCc1c(F)ccc2cc(O)cc(-c3ncc4c(N5CCC[C@@](C)(O)C5)nc(OCC5(CN6CCC(C)(CN7CCN(c8cc(F)c(C9CCC(=O)NC9=O)c(F)c8)CC7)CC6)CC5)nc4c3F)c12 (stereo partly drawn) [Compound 48, 3-(4-(4-((1-((1-(((7-(8-ethyl-7-fluoro-3-hydroxynaphthalen-1-yl)-8-fluoro-4-((R)-3-hydroxy-3-methylpiperidin-1-yl)pyrido[4,3-d]pyrimidin-2-yl)oxy)methyl)cyclopropyl)methyl)-4-methylpiperidin-4-yl)methyl)piperazin-1-yl)-2,6-difluorophenyl)piperidine-2,6-dione] | 6.70 to 7.70 | 0.001 to 0.01 |  | 17200 | < 0.01 | 
CCc1c(F)ccc2cc(O)cc(-c3ncc4c(N5CCC[C@@](C)(O)C5)nc(OCC5(CN6CCC7(CC6)CC(CN6CCN(c8cc(F)c(C9CCC(=O)NC9=O)c(F)c8)CC6)C7)CC5)nc4c3F)c12 (stereo partly drawn) [Compound 49, 3-(4-(4-((7-((1-(((7-(8-ethyl-7-fluoro-3-hydroxynaphthalen-1-yl)-8-fluoro-4-((R)-3-hydroxy-3-methylpiperidin-1-yl)pyrido[4,3-d]pyrimidin-2-yl)oxy)methyl)cyclopropyl)methyl)-7-azaspiro[3.5]nonan-2-yl)methyl)piperazin-1-yl)-2,6-difluorophenyl)piperidine-2,6-dione] | 6.70 to 7.70 | < 0.001 | < 0.01 | 3170 |  | 
CCc1c(F)ccc2cc(O)cc(-c3ncc4c(N5CCC[C@@](C)(O)C5)nc(OCC5(CN6CCC7(CC6)CC(N6CCN(c8cc(F)c(C9CCC(=O)NC9=O)c(F)c8)CC6)C7)CC5)nc4c3F)c12 (stereo partly drawn) [Compound 50, 3-(4-(4-(7-((1-(((7-(8-ethyl-7-fluoro-3-hydroxynaphthalen-1-yl)-8-fluoro-4-((R)-3-hydroxy-3-methylpiperidin-1-yl)pyrido[4,3-d]pyrimidin-2-yl)oxy)methyl)cyclopropyl)methyl)-7-azaspiro[3.5]nonan-2-yl)piperazin-1-yl)-2,6-difluorophenyl)piperidine-2,6-dione] | 6.70 to 7.70 | < 0.001 | < 0.01 | 3900 |  | 
CCc1c(F)ccc2cc(O)cc(-c3ncc4c(N5CCC[C@@](C)(O)C5)nc(OCC5(CN6CCC7(CCC(N8CCN(c9cc(F)c(C%10CCC(=O)NC%10=O)c(F)c9)CC8)CC7)CC6)CC5)nc4c3F)c12 (stereo partly drawn) [Compound 51, 3-{4-[4-(3-{[1-({[7-(8-ethyl-7-fluoro-3-hydroxynaphthalen-1-yl)-8-fluoro-4-[(3R)-3-hydroxy-3-methylpiperidin-1-yl]pyrido[4,3-d]pyrimidin-2-yl]oxy}methyl)cyclopropyl]methyl}-3-azaspiro[5.5]undecan-9-yl)piperazin-1-yl]-2,6-difluorophenyl}piperidine-2,6-dione] | 6.70 to 7.70 | 0.001 to 0.01 |  | 2280 | < 0.01 | 
CCc1c(F)ccc2cc(O)cc(-c3ncc4c(N5CCC[C@@](C)(O)C5)nc(OCC5(CN6CC7(CCC(N8CCN(c9cc(F)c(C%10CCC(=O)NC%10=O)c(F)c9)CC8)CC7)C6)CC5)nc4c3F)c12 (stereo partly drawn) [Compound 60, 3-(4-(4-(2-((1-(((7-(8-ethyl-7-fluoro-3-hydroxynaphthalen-1-yl)-8-fluoro-4-((R)-3-hydroxy-3-methylpiperidin-1-yl)pyrido[4,3-d]pyrimidin-2-yl)oxy)methyl)cyclopropyl)methyl)-2-azaspiro[3.5]nonan-7-yl)piperazin-1-yl)-2,6-difluorophenyl)piperidine-2,6-dione] | 6.70 to 7.70 | < 0.001 | < 0.01 | 1780 |  | 
CCc1c(F)ccc2cc(O)cc(-c3ncc4c(N5CCC[C@@](C)(O)C5)nc(OCC5(CN6CC(F)(CN7CC8(CCN(c9ccc%10c(c9)CN([C@H]9CCC(=O)NC9=O)C%10=O)CC8)C7)C6)CC5)nc4c3F)c12 [Compound 68, (S)-3-(5-(2-((1-((1-(((7-(8-ethyl-7-fluoro-3-hydroxynaphthalen-1-yl)-8-fluoro-4-((R)-3-hydroxy-3-methylpiperidin-1-yl)pyrido[4,3-d]pyrimidin-2-yl)oxy)methyl)cyclopropyl)methyl)-3-fluoroazetidin-3-yl)methyl)-2,7-diazaspiro[3.5]nonan-7-yl)-1-oxoisoindolin-2-yl)piperidine-2,6-dione] | < 6.70 | 0.001 to 0.01 | < 0.01 | 901 |  | 
CCc1c(F)ccc2cc(O)cc(-c3ncc4c(N5CCC[C@]6(CCO6)C5)nc(OCC5(CN6CCC(F)(CN7CCN(c8ccc9c(c8)CN([C@H]8CCC(=O)NC8=O)C9=O)CC7)CC6)CC5)nc4c3F)c12 [Compound 86, (S)-3-(5-(4-((1-((1-(((7-(8-ethyl-7-fluoro-3-hydroxynaphthalen-1-yl)-8-fluoro-4-((S)-1-oxa-6-azaspiro[3.5]nonan-6-yl)pyrido[4,3-d]pyrimidin-2-yl)oxy)methyl)cyclopropyl)methyl)-4-fluoropiperidin-4-yl)methyl)piperazin-1-yl)-1-oxoisoindolin-2-yl)piperidine-2,6-dione] | 6.70 to 7.70 | < 0.001 | < 0.01 | 1320 |  | 
CCc1c(F)ccc2cc(O)cc(-c3ncc4c(N5CCC[C@@](C)(O)C5)nc(OCC5(CN6CCC7(CCC(N8CCN(c9ccc%10c(c9)CN([C@H]9CCC(=O)NC9=O)C%10=O)CC8)CC7)CC6)CC5)nc4c3F)c12 [Compound 120, (S)-3-(5-(4-(3-((1-(((7-(8-ethyl-7-fluoro-3-hydroxynaphthalen-1-yl)-8-fluoro-4-((R)-3-hydroxy-3-methylpiperidin-1-yl)pyrido[4,3-d]pyrimidin-2-yl)oxy)methyl)cyclopropyl)methyl)-3-azaspiro[5.5]undecan-9-yl)piperazin-1-yl)-1-oxoisoindolin-2-yl)piperidine-2,6-dione] | > 7.70 | 0.001 to 0.01 | < 0.01 |  |  | 255
CCc1c(F)ccc2cc(O)cc(-c3ncc4c(N5CCC[C@@](C)(O)C5)nc(OCC5(CN6CCC7(CC6)CC(N6CCN(c8ccc9c(c8)CN([C@H]8CCC(=O)NC8=O)C9=O)CC6)C7)CC5)nc4c3F)c12 [Compound 121, (S)-3-(5-(4-(7-((1-(((7-(8-ethyl-7-fluoro-3-hydroxynaphthalen-1-yl)-8-fluoro-4-((R)-3-hydroxy-3-methylpiperidin-1-yl)pyrido[4,3-d]pyrimidin-2-yl)oxy)methyl)cyclopropyl)methyl)-7-azaspiro[3.5]nonan-2-yl)piperazin-1-yl)-1-oxoisoindolin-2-yl)piperidine-2,6-dione] | > 7.70 | < 0.001 | < 0.01 |  |  | 598
